Results published in patent US12371664B2, “Medium for direct differentiation of pluripotent stem cell-derived mesenchymal stem cell, method for preparing mesenchymal stem cell by using same, and mesenchymal stem cell prepared thereby” (CHA BIOTECH CO., LTD., priority 2018, dated 2025).

Assays:
[1] = test system: transcription factor required for endodermal differentiation / mesodermal differentiation; settings: background art; cited from earlier work
[2] = test system: human embryonic stem cells; assay: Analysis of cytomorphological features (spindle shape) under a phase-contrast microscope; format: cell-based; settings: FIG. 10; 10 μM RS1, 10 μM Y27632, 1 μM SB431542 as applicable
Text: For analysis of cytomorphological features of mesenchymal stem cells obtained in Example 1 and Comparative Example 1, a mesenchymal stem cell-specific proliferation pattern (spindle shape) was identified under a phase-contrast microscope (Nikon TE-2000), and the results are shown in FIGS. 2 and 3, respectively.
For analysis of cytomorphological difference by treatment with the DNA repair agent or the ROCK inhibitor alone on the basis of period, morphologies of cells of Example 1 and Comparative Examples 2 and 3 were analyzed in the same manner as in Experimental Example 1. As a control, cells treated with the TGF-β inhibitor SB431542 alone without being treated with both the DNA repair agent and the ROCK inhibitor were used, and the results are shown in FIG. 10.

## NC(=O)c1ccc(-c2nc(-c3ccc4c(c3)OCO4)c(-c3ccccn3)[nH]2)cc1.O [SB431542, 4-[4-(1,3-benzodioxol-5-yl)-5-(2-pyridinyl)-1H-imidazol-2-yl]-benzamide hydrate]
[1]
  concentration having effects on inhibiting the transcription factor for endodermal differentiation and increasing that for mesodermal differentiation: ≥ 1 µM
[2]
  cytomorphological observation (mesenchymal stem cell proliferation pattern of the spindle shape): most of the cells disappeared on the 30th day and uniformity deteriorated
